Experimental data as given in the supplement of paper PMC4858399.
Where a name gives a salt, the structure may show the parent alone.

Legend:
Conditions in all cases: exposure time 48 h
[1] = tested on: Caenorhabditis elegans N2; test: AC50 for larval growth inhibition (Hill fit); higher = less potent
Method in brief: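 After 48 h at 20°C in K-medium with killed OP50, 1% DMSO and 0.5–200 µM chemical, synchronised C. elegans N2 L1 larvae (50 per well, 96-well plates) were sized individually as extinction on a COPAS Biosort. These values were log-transformed and averaged per well, and wells with fewer than 10 worms were excluded. The AC50 was derived from a constrained Hill fit by weighted genetic-algorithm regression, and out-of-range values are censored.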

[2] = tested on: Caenorhabditis elegans N2; test: lowest effective concentration for larval growth inhibition (size below effect threshold); higher = less potent
Method in brief: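 L1 larvae of C. elegans N2 (50 per 96-well) were grown in K-medium with killed bacteria and 1% DMSO, with the chemical at 0.5, 1, 5, 10, 50, 100 or 200 µM, for 48 h at 20°C. Per-worm extinction from the Biosort stood for size and was log-transformed into well means. For each chemical, the lowest effective concentration is the first dose where plate-adjusted mean size falls under the threshold and stays under it at the higher doses, using a threshold of 5.665.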

[3] = tested on: Caenorhabditis elegans N2; test: mean nematode size ln(EXT) after 48 h, plate-adjusted (DMSO control set to 6) (ln(EXT), control-adjusted); higher = larger nematodes / less growth inhibition
Method in brief: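 Worms were measured individually for extinction on the Biosort after 48 h at 20°C. They began as synchronised C. elegans N2 L1 larvae in K-medium with killed OP50, 1% DMSO and 0.5–200 µM chemical. Once debris had been removed by a growth model, values were natural-logged and averaged per well to give mean size. The plate adjustment subtracted the vehicle control mean and added 6.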

| SMILES | AC50 for larval growth inhibition [1] [µM] | lowest effective concentration [2] [µM] | mean nematode size ln(EXT) (ln) ([3]; 0.5 µM) | mean nematode size ln(EXT) (ln) ([3]; 1 µM) | mean nematode size ln(EXT) (ln) ([3]; 5 µM) | mean nematode size ln(EXT) (ln) ([3]; 10 µM) | mean nematode size ln(EXT) (ln) ([3]; 50 µM) | mean nematode size ln(EXT) (ln) ([3]; 100 µM) | mean nematode size ln(EXT) (ln) ([3]; 200 µM) |
| --- | --- | --- | --- | --- | --- | --- | --- | --- | --- |
| CCC(C)(C)C(=O)O[C@H]1C[C@@H](C)C=C2C=C[C@H](C)[C@H](CC[C@@H]3C[C@@H](O)CC(=O)O3)[C@H]21 [Simvastatin] | > 200 | 100 | 5.79 | 5.93 | 6 | 5.84 | 5.7 | 5.39 | 4.67 |
| On1ccccc1=S [Sodium (2-pyridylthio)-N-oxide] | > 200 | 200 | 5.88 | 5.86 | 5.84 | 5.87 | 5.74 | 5.74 | 5.51 |
| [N-]=[N+]=[N-] [Sodium azide] | > 200 | 50 | 5.79 | 5.92 | 5.83 | 5.76 | 5.63 | 5.45 | 5.49 |
| CCCCCCCCCCCCCCCCOS(=O)(=O)O [Sodium cetyl sulfate] | 74.7 | 50 | 5.79 | 6.01 | 5.91 | 5.92 | 5.38 | 5 | 4.68 |
| CCCCCCCCCCCCOS(=O)(=O)[O-].[Na+] [Sodium dodecyl sulfate] | 24.5 | 10 | 5.87 | 5.81 | 5.75 | 5.47 | 4.99 | 4.66 | 4.69 |
| CCCCCCCC/C=C\CCCCCCCC(=O)OC[C@@H](O)[C@H]1OC[C@H](O)[C@H]1O [Sorbitan, mono-(9Z)-9-octadecenoate] | > 200 | 200 | 5.92 | 5.88 | 5.92 | 5.89 | 5.89 | 5.83 | 5.34 |
| CCC(C)(C)C(=O)OC1=C(c2ccc(Cl)cc2Cl)C(=O)OC12CCCCC2 [Spirodiclofen] | 24 | 50 | 5.74 | 5.86 | 5.7 | 5.73 | 4.53 | 4.72 | 4.25 |
| CCCN(CC)CC1COC2(CCC(C(C)(C)C)CC2)O1 (stereo not given) [Spiroxamine] | 184 | 200 | 5.61 | 5.84 | 5.9 | 6.1 | 5.84 | 6.17 | 3.97 |
| C=C(C)C(=O)[O][Sn]([CH2]CCC)([CH2]CCC)[CH2]CCC [Stannane, tributyl(2-methyl-1-oxo-2-propenyl)oxy-] | 0.511 | ≤ 0.5 | 4.73 | 4.66 | 3.93 | 3.57 | 3.8 | 3.85 | 3.56 |
| Cc1nn(-c2cc(NS(C)(=O)=O)c(Cl)cc2Cl)c(=O)n1C(F)F [Sulfentrazone] | 108 | 200 | 5.85 | 5.87 | 5.92 | 5.96 | 6.05 | 5.9 | 5.5 |
| CCNS(=O)(=O)C(F)(F)C(F)(F)C(F)(F)C(F)(F)C(F)(F)C(F)(F)C(F)(F)C(F)(F)F [Sulfluramid] | 31.4 | 5 | 5.81 | 5.84 | 5.48 | 5.23 | 4.32 | 4.08 | 3.24 |
| CCc1c(C(=O)NN2CCCCC2)nn(-c2ccc(Cl)cc2Cl)c1-c1ccc(Br)cc1 [Surinabant] | > 200 | 5 | 5.77 | 5.74 | 5.6 | 5.44 | 5.2 | 5.06 | 4.77 |
| N#CSCSc1nc2ccccc2s1 [TCMTB] | 34 | 50 | 5.93 | 5.84 | 5.81 | 5.78 | 4.12 | 3.48 | 3.4 |
| CC/C(=C(\c1ccccc1)c1ccc(OCCN(C)C)cc1)c1ccccc1 [Tamoxifen citrate salt] | 10.9 | 10 | 5.96 | 6 | 5.82 | 5.01 | 3.9 | 3.68 | – |
| CC/C(=C(\c1ccccc1)c1ccc(OCCN(C)C)cc1)c1ccccc1 [Tamoxifen] | 20.8 | 50 | 5.79 | 5.76 | 5.65 | 5.67 | 3.84 | 3.93 | 3.53 |
| O=C(OC[C@H]1O[C@@H](OC(=O)c2cc(O)c(O)c(OC(=O)c3cc(O)c(O)c(O)c3)c2)[C@H](OC(=O)c2cc(O)c(O)c(OC(=O)c3cc(O)c(O)c(O)c3)c2)[C@@H](OC(=O)c2cc(O)c(O)c(OC(=O)c3cc(O)c(O)c(O)c3)c2)[C@@H]1OC(=O)c1cc(O)c(O)c(OC(=O)c2cc(O)c(O)c(O)c2)c1)c1cc(O)c(O)c(OC(=O)c2cc(O)c(O)c(O)c2)c1 [Tannic acid] | > 200 | 200 | 5.95 | 5.98 | 5.96 | 5.92 | 5.86 | 5.68 | 5.34 |
| O=C(O)C(O)C(O)C(=O)O (stereo not given) [Tartaric acid] | > 200 | 200 | 5.84 | 5.89 | 5.79 | 5.79 | 5.9 | 5.82 | 5.17 |

| SMILES | AC50 for larval growth inhibition [1] [µM] | lowest effective concentration [2] [µM] | mean nematode size ln(EXT) (ln) ([3]; 0.5 µM) | mean nematode size ln(EXT) (ln) ([3]; 1 µM) | mean nematode size ln(EXT) (ln) ([3]; 5 µM) | mean nematode size ln(EXT) (ln) ([3]; 10 µM) | mean nematode size ln(EXT) (ln) ([3]; 50 µM) | mean nematode size ln(EXT) (ln) ([3]; 100 µM) | mean nematode size ln(EXT) (ln) ([3]; 200 µM) |
| --- | --- | --- | --- | --- | --- | --- | --- | --- | --- |
| CC(C)(C)C(O)(CCc1ccc(Cl)cc1)Cn1cncn1 (stereo not given) [Tebuconazole] | 144 | 50 | 5.91 | 5.93 | 5.86 | 5.81 | 5.26 | 5.21 | 4.07 |
| CCc1ccc(C(=O)NN(C(=O)c2cc(C)cc(C)c2)C(C)(C)C)cc1 [Tebufenozide] | > 200 | 200 | 6.1 | 6.49 | 6.28 | 6.07 | 5.96 | 6.06 | 5.38 |
| CCc1nn(C)c(C(=O)NCc2ccc(C(C)(C)C)cc2)c1Cl [Tebufenpyrad] | 1.03 | ≤ 0.5 | 4.96 | 5.23 | 3.83 | 3.7 | 3.95 | 4.11 | 3.36 |
| CCOP(=S)(Oc1cnc(C(C)(C)C)nc1)OC(C)C (stereo not given) [Tebupirimfos] | 46.5 | 50 | 6 | 6.01 | 5.89 | 5.76 | 4.5 | 3.66 | 3.56 |
| CNC(=O)N(C)c1nnc(C(C)(C)C)s1 [Tebuthiuron] | 129 | 200 | 5.83 | 5.93 | 5.89 | 5.93 | 5.95 | 5.92 | 5.44 |
| CC/C(=N\OC/C=C/Cl)C1=C(O)CC(C2CCOCC2)CC1=O (stereo not given) [Tepraloxydim] | > 200 | 200 | 5.72 | 5.89 | 5.74 | 5.83 | 5.77 | 5.86 | 5.43 |
| Cc1[nH]c(=O)n(C(C)(C)C)c(=O)c1Cl [Terbacil] | > 200 | 200 | 5.34 | 5.77 | 5.2 | 5.76 | 5.1 | 5.87 | 5.23 |
| CCNc1nc(Cl)nc(NC(C)(C)C)n1 [Terbuthylazin] | > 200 | 50 | 6 | 5.99 | 5.96 | 5.95 | 5.65 | 5.58 | 5.22 |
| FC(F)C(F)(F)OCC(Cn1cncn1)c1ccc(Cl)cc1Cl (stereo not given) [Tetraconazole] | 48.5 | 10 | 5.81 | 5.97 | 5.98 | 5.65 | 4.91 | 4.36 | 4.07 |
| CN(C)[C@@H]1C(=O)C(C(N)=O)=C(O)[C@@]2(O)C(=O)C3=C(O)c4c(O)cccc4[C@@](C)(O)[C@H]3C[C@@H]12 [Tetracycline] | 103 | 100 | 6.03 | 6.08 | 6.03 | 6.05 | 6.06 | 5.64 | 4.89 |
| CC(C)=CC1C(C(=O)OCN2C(=O)C3=C(CCCC3)C2=O)C1(C)C (stereo not given) [Tetramethrin] | 78.6 | 100 | 5.94 | 5.96 | 6.03 | 6.01 | 5.76 | 4.97 | 4.57 |
| Cn1c(=O)c2nc[nH]c2n(C)c1=O [Theophylline] | > 200 | 200 | 5.97 | 5.97 | 5.98 | 6.02 | 5.84 | 5.9 | 5.59 |
| c1ccc2[nH]c(-c3cscn3)nc2c1 [Thiabendazole] | > 200 | 200 | 6.04 | 6.23 | 6.02 | 5.98 | 5.78 | 5.93 | 4.91 |
| COC(=O)c1c(C(F)F)nc(C(F)(F)F)c(C2=NCCS2)c1CC(C)C [Thiazopyr] | 73.2 | 50 | 6.05 | 5.89 | 6 | 5.98 | 4.8 | 4.4 | 3.61 |
| O=C(Nc1ccccc1)Nc1cnns1 [Thidiazuron] | > 200 | 200 | 6.05 | 6.18 | 6.1 | 5.93 | 6.01 | 5.89 | 4.8 |
| CCN(CC)C(=O)SCc1ccc(Cl)cc1 [Thiobencarb] | 51.1 | 50 | 5.97 | 5.98 | 5.97 | 5.95 | 5.44 | 4.48 | 4.48 |
| CS/C(C)=N\OC(=O)N(C)SN(C)C(=O)O/N=C(\C)SC [Thiodicarb] | 28.4 | 5 | 5.54 | 5.83 | 5.32 | 5.34 | 4.27 | 3.74 | 3.51 |
